Test [1] deals with T1, Inhibitor of nuclear factor kappa-B kinase subunit alpha (Homo sapiens) (UniProt O15111).
T1 sequence (whole entry): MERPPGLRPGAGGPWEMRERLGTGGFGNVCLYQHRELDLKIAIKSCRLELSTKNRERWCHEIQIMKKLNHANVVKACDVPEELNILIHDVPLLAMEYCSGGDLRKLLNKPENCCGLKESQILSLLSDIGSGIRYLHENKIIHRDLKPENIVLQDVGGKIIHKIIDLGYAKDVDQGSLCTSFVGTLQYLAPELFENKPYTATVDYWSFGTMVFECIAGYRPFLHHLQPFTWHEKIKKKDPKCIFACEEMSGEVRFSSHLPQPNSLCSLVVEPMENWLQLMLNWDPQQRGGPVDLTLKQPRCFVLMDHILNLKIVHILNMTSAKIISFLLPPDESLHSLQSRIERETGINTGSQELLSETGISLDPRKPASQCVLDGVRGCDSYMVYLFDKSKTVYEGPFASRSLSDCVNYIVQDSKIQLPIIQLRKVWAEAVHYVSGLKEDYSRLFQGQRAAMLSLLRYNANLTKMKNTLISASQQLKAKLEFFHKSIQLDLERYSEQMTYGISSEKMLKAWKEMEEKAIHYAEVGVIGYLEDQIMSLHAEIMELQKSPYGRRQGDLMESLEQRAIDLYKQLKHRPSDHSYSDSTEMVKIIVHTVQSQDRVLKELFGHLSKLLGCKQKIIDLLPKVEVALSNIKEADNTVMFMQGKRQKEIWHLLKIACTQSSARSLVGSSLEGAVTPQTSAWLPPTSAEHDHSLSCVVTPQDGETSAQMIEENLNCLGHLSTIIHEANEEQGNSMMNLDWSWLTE
The settings on record: at 1 µM.

In test [2] the target is T2, Inhibitor of nuclear factor kappa-B kinase subunit epsilon (Homo sapiens) (UniProt Q14164).
T2 sequence (whole entry): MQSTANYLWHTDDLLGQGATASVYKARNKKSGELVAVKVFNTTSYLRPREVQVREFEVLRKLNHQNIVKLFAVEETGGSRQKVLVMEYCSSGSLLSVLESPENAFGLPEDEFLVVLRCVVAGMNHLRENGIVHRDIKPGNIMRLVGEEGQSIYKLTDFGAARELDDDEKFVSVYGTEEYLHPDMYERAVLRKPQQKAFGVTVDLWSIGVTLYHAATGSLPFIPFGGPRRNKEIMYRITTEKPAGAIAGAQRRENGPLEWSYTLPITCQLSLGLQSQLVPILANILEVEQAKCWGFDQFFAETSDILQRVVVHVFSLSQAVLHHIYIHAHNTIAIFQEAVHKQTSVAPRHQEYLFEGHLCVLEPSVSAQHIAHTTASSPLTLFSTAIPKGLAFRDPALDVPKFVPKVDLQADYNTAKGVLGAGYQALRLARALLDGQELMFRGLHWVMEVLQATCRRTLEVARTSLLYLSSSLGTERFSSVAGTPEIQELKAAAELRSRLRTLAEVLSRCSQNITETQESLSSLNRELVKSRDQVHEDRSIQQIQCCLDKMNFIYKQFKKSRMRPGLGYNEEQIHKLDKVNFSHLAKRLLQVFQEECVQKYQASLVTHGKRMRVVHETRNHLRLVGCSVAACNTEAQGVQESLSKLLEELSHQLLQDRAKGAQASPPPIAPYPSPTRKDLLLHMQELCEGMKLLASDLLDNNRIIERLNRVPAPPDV
The conditions noted are these: at 1 µM.

Test [3] concerns the target T3, Tyrosine-protein kinase Mer (Homo sapiens) (UniProt Q12866).
T3 sequence (whole entry): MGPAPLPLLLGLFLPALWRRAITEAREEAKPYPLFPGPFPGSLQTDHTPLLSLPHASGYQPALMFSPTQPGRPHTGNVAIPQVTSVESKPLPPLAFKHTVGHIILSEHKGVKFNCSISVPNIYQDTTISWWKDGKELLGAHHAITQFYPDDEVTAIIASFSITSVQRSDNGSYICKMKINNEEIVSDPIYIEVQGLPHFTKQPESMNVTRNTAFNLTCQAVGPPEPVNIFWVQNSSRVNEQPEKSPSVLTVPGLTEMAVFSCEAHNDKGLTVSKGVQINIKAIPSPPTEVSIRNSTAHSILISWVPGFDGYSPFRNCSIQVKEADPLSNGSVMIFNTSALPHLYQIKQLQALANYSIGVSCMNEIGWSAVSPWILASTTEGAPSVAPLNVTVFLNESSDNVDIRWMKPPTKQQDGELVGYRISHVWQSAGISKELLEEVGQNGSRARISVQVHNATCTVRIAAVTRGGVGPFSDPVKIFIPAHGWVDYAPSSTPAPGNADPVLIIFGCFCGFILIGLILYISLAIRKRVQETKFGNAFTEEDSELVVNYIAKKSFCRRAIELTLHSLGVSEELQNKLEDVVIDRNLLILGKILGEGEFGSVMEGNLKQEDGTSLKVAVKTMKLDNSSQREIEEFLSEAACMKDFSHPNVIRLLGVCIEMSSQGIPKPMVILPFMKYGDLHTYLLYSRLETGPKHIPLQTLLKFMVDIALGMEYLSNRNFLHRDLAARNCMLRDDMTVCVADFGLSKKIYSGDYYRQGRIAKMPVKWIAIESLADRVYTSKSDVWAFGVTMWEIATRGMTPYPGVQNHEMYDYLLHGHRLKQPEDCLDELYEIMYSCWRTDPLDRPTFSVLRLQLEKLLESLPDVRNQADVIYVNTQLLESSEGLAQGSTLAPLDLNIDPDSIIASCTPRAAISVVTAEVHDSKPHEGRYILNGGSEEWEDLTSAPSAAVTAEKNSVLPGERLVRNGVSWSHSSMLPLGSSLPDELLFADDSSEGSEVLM
The settings on record: at 10 µM.

We go through 32 molecules from ChEMBL document CHEMBL2007661, “Compounds: GSK PKIS; Assays: UNC Frye lab” (2012).

“And” between values parts separate entries of the source, which are not always exact repeats. Identical values can stand only once.

What is called inhibition is the change of the read-out against control, counted positive when it falls. Take `O=C1NC(=O)C(N2CCc3ccccc32)=C1c1ccc(Cl)cc1`: the inhibition in test [1] was 8% and 9%; in test [2], 1%; in test [3], -6%.

`c1ccc(-c2nc3n(c2-c2ccc4c(c2)OCO4)CCC3)nc1`: the inhibition in test [1] was 2% and 0%; in test [2] it was 1% and 2%; in test [3], -1%.

Take `COc1cccc(-n2nc(C)c3c(N/N=C(\C)c4ccncc4)ncnc32)c1`: the inhibition in test [1] is 7% and 6%; in test [2] it was 18% and 3%; in test [3] it was -8%.

With `COc1ccc(C2=C(N3CCc4ccccc43)C(=O)NC2=O)cc1`, the inhibition in test [1] was 2% and 0%; in test [2], -1% and 0%; in test [3] it was 3%.

In the case of `COC(=O)Nc1nc2cc(Oc3cccc(NC(=O)Nc4cc(C(F)(F)F)ccc4F)c3)ccc2[nH]1`, the inhibition was 0% and 2% in test [1]; -1% and -2% in test [2]; -10% in test [3].

As to `CS(=O)(=O)Nc1ccc(-c2cc(-c3ccccc3)cc(C(N)=O)c2N)cc1`, the inhibition was -1% and -3% in test [1]; -2% and -1% in test [2]; -2% in test [3].

With `c1ccc(Nc2ncc(-c3ccccc3)o2)cc1`, the inhibition in test [1] was -1% and 0%; in test [2] it was 0% and -1%; in test [3], 0%.

For `CC(C)c1ccc(Nc2nccc(-c3cnn4ncccc34)n2)cc1`, the inhibition in test [1] is 2% and -1%; in test [2], 15% and 11%; in test [3], 32%.

Regarding `O=C(NCC1CC1)c1ccc(-c2cccc(C(=O)NC3CC3)c2)cc1`, the inhibition was -4% and -5% in test [1]; -5% and 0% in test [2]; 0% in test [3].

Take `CN(C)C(=O)O[C@H]1CN[C@H](C#Cc2cc3ncnc(Nc4ccc(OCc5cccc(F)c5)c(Cl)c4)c3s2)C1`: the inhibition in test [1] is 2% and 1%; in test [2], 0% and 2%; in test [3], 2%.

Take `COC(=O)Nc1nc2ccc(Oc3ccc(NC(=O)Nc4cccc(Cl)c4)cc3)cc2[nH]1`: the inhibition in test [1] is -3% and -2%; in test [2], 2% and 1%; in test [3], 2%.

For `COc1cccc(-n2cnc3c(N/N=C/c4ccncc4)ncnc32)c1`, the inhibition is 2% and -3% in test [1]; 1% and 0% in test [2]; -4% in test [3].

Take `CCn1c(-c2nonc2N)nc2cnc(Oc3cccc(NC(=O)c4ccc(N(C)C)cc4)c3)cc21`: the inhibition was 5% and 9% in test [1]; 31% in test [2]; -6% in test [3].

With `CNC(=O)c1cncc(/C=C/c2ccccc2C)c1`, the inhibition in test [1] was 4% and -3%; in test [2] it was 3% and 1%; in test [3], -5%.

With `NS(=O)(=O)c1ccc(N/N=C2\C(=O)Nc3ccc(C(=O)NCCCn4ccnc4)cc32)cc1`, the inhibition in test [1] was -3% and -4%; in test [2] it was 27%; in test [3], -4%.

Consider `CS(=O)(=O)CCNCc1ccc(-c2ccc3ncnc(Nc4ccc(OCc5ccccc5)cc4)c3c2)o1`, for which the figures for the inhibition in test [1], in test [2] and in test [3] were 3%, -1% and -3%, respectively.

As for `Cc1nn(C)c2cc(N(C)c3ccnc(Nc4cccc(S(N)(=O)=O)c4)n3)ccc12`, the inhibition in test [1] was -8% and 0%; in test [2], 2%; in test [3] it was -8%.

For the molecule `CC1=C(C(=O)Nc2ccc3[nH]ncc3c2)C(c2ccc(Cl)c(Cl)c2)CC(=O)N1` (stereo unspecified), the inhibition in test [1] is 6% and -8%; in test [2] it was 0% and 1%; in test [3], 3%.

On to `COc1cc(C)c(N(C)C(=O)CN(C)C)cc1Nc1nc(Nc2cccc(F)c2C(N)=O)c2cc[nH]c2n1`, for which the inhibition is 4% and 3% in test [1]; -3% and -2% in test [2]; 50% in test [3].

Turning to `NC(=O)c1sc(-n2cnc3ccc(C(F)(F)F)cc32)cc1OCc1ccccc1Br`, the inhibition in test [1] is 1% and 0%; in test [2], 2% and 1%; in test [3], 101%.

`CN1CCC(n2cnc(-c3ccc(F)cc3)c2-c2ccnc(Nc3ccccc3)n2)CC1`: the inhibition in test [1] is -1% and 0%; in test [2] it was 0% and -2%; in test [3], -1%.

In the case of `CNC(=O)c1ncccc1Nc1nc(Nc2cc3c(cc2OC)CCCN3C(=O)CN(C)C)nc2[nH]ccc12`, the inhibition in test [1] was 6% and 5%; in test [2] it was 0% and 5%; in test [3], 77%.

With `O=C(O[C@H]1CN[C@H](C#Cc2cc3ncnc(Nc4ccc5c(cnn5Cc5ccccc5)c4)c3s2)C1)N1CCOCC1`, the inhibition is 4% and 3% in test [1]; 1% and 2% in test [2]; 15% in test [3].

Regarding `CN(c1ccc(NC(=O)NCCN2CCOCC2)cc1)c1ccnc(Nc2ccc(CS(C)(=O)=O)cc2)n1`, the inhibition in test [1] is 1%; in test [2], 2% and 5%; in test [3], 101%.

As for `NCc1ccc(-n2c(-c3nonc3N)nc3cnccc32)cc1`, the inhibition in test [1] is 40% and 38%; in test [2] it was 2%; in test [3], -3%.

For `NS(=O)(=O)c1ccc(N/N=C2\C(=O)Nc3cccc(CCc4ccncc4)c32)cc1`, the inhibition in test [1] was 5%; in test [2], 5% and 3%; in test [3] it was -5%.

In the case of `CCn1c(-c2nonc2N)nc2ccncc21`, the inhibition in test [1] was 4% and 1%; in test [2] it was -2% and -1%; in test [3], 32%.

Turning to `CC1(C)CC(n2cnc(-c3ccc(F)cc3)c2-c2ccnc(N)n2)CC(C)(C)N1`, the inhibition in test [1] is 3%; in test [2], -1% and 4%; in test [3], -5%.

`Cc1nnc(-c2ccc(C)c(-c3ccc(C(=O)Nc4cccc(C#N)c4)cc3)c2)o1`: the inhibition in test [1] was -1% and 3%; in test [2], -2% and -1%; in test [3], 7%.

Turning to `Fc1ccc(-c2nn3ccccc3c2-c2ccncc2)cc1`, the inhibition is 7% and 5% in test [1]; -4% and 2% in test [2]; -2% in test [3].

With `NS(=O)(=O)c1ccc(N/N=C2\C(=O)Nc3ccc(C(=O)NCc4ccncc4)cc32)cc1`, the results for the inhibition in test [1], in test [2] and in test [3] were 0%, 65% and -8%, respectively.

Regarding `Nc1nccc(-c2c(-c3ccc(F)cc3)nn3cc(C(F)(F)F)ccc23)n1`, the inhibition in test [1] is 1% and 0%; in test [2], 2%; in test [3], 88%.
